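Exposure lasted 48 hours, with cells grown in 96-well plates and compounds tested at five concentrations. The concentration for 50% growth inhibition is given as GI50. TGI marks complete inhibition of growth.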
What was measured:
Test in all cases: NCI-60 cell line screen, 48 h
HCC-2998 colon = test system: HCC-2998 colon
LOX IMVI melanoma = test system: LOX IMVI melanoma
OVCAR-8 ovarian = test system: OVCAR-8 ovarian
HOP-92 NSCLC = test system: HOP-92 NSCLC
UACC-62 melanoma = test system: UACC-62 melanoma
SF-539 CNS = test system: SF-539 CNS
NCI-H226 lung = test system: NCI-H226 lung
SK-MEL-2 melanoma = test system: SK-MEL-2 melanoma
BT-549 breast = test system: BT-549 breast
RXF 393 renal = test system: RXF 393 renal
A498 renal = test system: A498 renal
MCF7 breast = test system: MCF7 breast
COLO 205 colon = test system: COLO 205 colon
SF-295 CNS = test system: SF-295 CNS
ACHN renal = test system: ACHN renal
UACC-257 melanoma = test system: UACC-257 melanoma
HS 578T breast = test system: HS 578T breast
MALME-3M melanoma = test system: MALME-3M melanoma
CAKI-1 renal = test system: CAKI-1 renal
NCI-H23 lung = test system: NCI-H23 lung
IGROV1 ovarian = test system: IGROV1 ovarian
UO-31 renal = test system: UO-31 renal
HOP-62 NSCLC = test system: HOP-62 NSCLC
EKVX NSCLC = test system: EKVX NSCLC
SK-MEL-5 melanoma = test system: SK-MEL-5 melanoma
KM12 colon = test system: KM12 colon
PC-3 prostate = test system: PC-3 prostate
SN12C renal = test system: SN12C renal
MOLT-4 leukemia = test system: MOLT-4 leukemia
SK-OV-3 ovarian = test system: SK-OV-3 ovarian
K-562 leukemia = test system: K-562 leukemia
MDA-MB-231 breast = test system: MDA-MB-231 breast
SNB-19 CNS = test system: SNB-19 CNS
A549 NSCLC = test system: A549 NSCLC
M14 melanoma = test system: M14 melanoma
HCT-116 colon = test system: HCT-116 colon
SR leukemia = test system: SR leukemia
786-0 renal = test system: 786-0 renal
NCI-H460 lung = test system: NCI-H460 lung
RPMI-8226 leukemia = test system: RPMI-8226 leukemia
NCI/ADR-RES ovarian = test system: NCI/ADR-RES ovarian
U251 CNS = test system: U251 CNS
SF-268 CNS = test system: SF-268 CNS
TK-10 renal = test system: TK-10 renal
OVCAR-5 ovarian = test system: OVCAR-5 ovarian
OVCAR-3 ovarian = test system: OVCAR-3 ovarian
CCRF-CEM leukemia = test system: CCRF-CEM leukemia
OVCAR-4 ovarian = test system: OVCAR-4 ovarian
SW-620 colon = test system: SW-620 colon
NCI-H522 lung = test system: NCI-H522 lung
MDA-MB-435 = test system: MDA-MB-435
DU-145 prostate = test system: DU-145 prostate
HCT-15 colon = test system: HCT-15 colon

## O=C(/C=C/c1ccc(F)cc1)c1ccc(Cl)cc1Cl
HCC-2998 colon
  GI50: 52.7 µM
  TGI: > 100 µM
LOX IMVI melanoma
  GI50: 41.1 µM
  TGI: > 100 µM
OVCAR-8 ovarian
  GI50: 33.7 µM
  TGI: > 100 µM
HOP-92 NSCLC
  GI50: 30 µM
  TGI: 80.8 µM
UACC-62 melanoma
  GI50: 39.8 µM
  TGI: > 100 µM
SF-539 CNS
  GI50: > 100 µM
  TGI: > 100 µM
NCI-H226 lung
  GI50: > 100 µM
  TGI: > 100 µM
SK-MEL-2 melanoma
  GI50: > 100 µM
  TGI: > 100 µM
BT-549 breast
  GI50: 27.2 µM
  TGI: 71.6 µM
RXF 393 renal
  GI50: 30.5 µM
  TGI: 93.4 µM
A498 renal
  GI50: > 100 µM
  TGI: > 100 µM
MCF7 breast
  GI50: 20.6 µM
  TGI: 62.5 µM
COLO 205 colon
  GI50: 44.2 µM
  TGI: > 100 µM
SF-295 CNS
  GI50: 77.3 µM
  TGI: > 100 µM
ACHN renal
  GI50: > 100 µM
  TGI: > 100 µM
UACC-257 melanoma
  GI50: 68.3 µM
  TGI: > 100 µM
HS 578T breast
  GI50: 54.3 µM
  TGI: > 100 µM
MALME-3M melanoma
  GI50: > 100 µM
  TGI: > 100 µM
CAKI-1 renal
  GI50: 33 µM
  TGI: 89.6 µM
NCI-H23 lung
  GI50: 37.2 µM
  TGI: > 100 µM
IGROV1 ovarian
  GI50: > 100 µM
  TGI: > 100 µM
UO-31 renal
  GI50: 91.8 µM
  TGI: > 100 µM
HOP-62 NSCLC
  GI50: > 100 µM
  TGI: > 100 µM
EKVX NSCLC
  GI50: 89.9 µM
  TGI: > 100 µM
SK-MEL-5 melanoma
  GI50: 50.8 µM
  TGI: > 100 µM
KM12 colon
  GI50: 38.1 µM
  TGI: > 100 µM
PC-3 prostate
  GI50: 31.3 µM
  TGI: 96.8 µM
SN12C renal
  GI50: 61.8 µM
  TGI: > 100 µM
MOLT-4 leukemia
  GI50: 26.2 µM
  TGI: 63.9 µM
SK-OV-3 ovarian
  GI50: > 100 µM
  TGI: > 100 µM
K-562 leukemia
  GI50: 33.9 µM
  TGI: > 100 µM
MDA-MB-231 breast
  GI50: > 100 µM
  TGI: > 100 µM
SNB-19 CNS
  GI50: 23.7 µM
  TGI: 77.8 µM
A549 NSCLC
  GI50: 33.5 µM
  TGI: > 100 µM
M14 melanoma
  GI50: > 100 µM
  TGI: > 100 µM
HCT-116 colon
  GI50: 16.6 µM
  TGI: 31.3 µM
SR leukemia
  GI50: 26.4 µM
  TGI: 86.5 µM
786-0 renal
  GI50: 45.2 µM
  TGI: > 100 µM
NCI-H460 lung
  GI50: 65.6 µM
  TGI: > 100 µM
RPMI-8226 leukemia
  GI50: 17.5 µM
  TGI: 39.5 µM
NCI/ADR-RES ovarian
  GI50: 38.4 µM
  TGI: > 100 µM
U251 CNS
  GI50: 44.6 µM
  TGI: > 100 µM
SF-268 CNS
  GI50: 74.5 µM
  TGI: > 100 µM
TK-10 renal
  GI50: 86.8 µM
  TGI: > 100 µM
OVCAR-5 ovarian
  GI50: 32.4 µM
  TGI: 96.5 µM
OVCAR-3 ovarian
  GI50: 25.8 µM
  TGI: 73 µM
CCRF-CEM leukemia
  GI50: 22.1 µM
  TGI: 52.8 µM
OVCAR-4 ovarian
  GI50: 82.9 µM
  TGI: > 100 µM
SW-620 colon
  GI50: 29.7 µM
  TGI: 79.2 µM
NCI-H522 lung
  GI50: 47.7 µM
  TGI: > 100 µM
MDA-MB-435
  GI50: 50 µM
  TGI: > 100 µM
DU-145 prostate
  GI50: 53.4 µM
  TGI: > 100 µM
HCT-15 colon
  GI50: 43.8 µM
  TGI: > 100 µM

— PubChem BioAssay (NCI)
